Source: PMC10810651, “Discovery of novel and potent CDK8 inhibitors for the treatment of acute myeloid leukaemia” (Journal of Enzyme Inhibition and Medicinal Chemistry, 2024)
Like-named read-outs stand apart in the source and are kept apart here.

Key:
MV4-11 = test: Antiproliferative CCK-8 assay, MV4-11; format: cell-based; details: Homo sapiens; MV4-11, CCK-8 assay, means ± SD; read-out: GC50 (the source's name)
From the text: (§1) Compounds12, 13 and 30 were selected for further cell activity assessments based on the enzymatic activity assessment results. molm-13 and MV4-11(acute myeloid lineage leukaemia cells), MGC-803 (gastric cancer cell), MDA-MB-231(breast cancer cell), A375 (melanoma cell), A549 (lung cancer cell), HCT-116, SW-480 and HT-29 (colorectal cancer cells) were selected to evaluate antitumor activity in vitro, GES-1 (gastric mucosal epithelial cell) was selected to evaluate toxicity in vitro.
(§2) CO2 atmosphere incubator for 24 h. Then, medium with compound at the concentrations of 100, 20, 4, 0.8, 0.016 μM was added into each well for another 48 h and incubated with CCK-8 (10 μL) for 2 h at 37 °C. The absorbance value at 450 nm was measured by the microplate reader (PerkinElmer Envision). […]

MGC-803 = test: Antiproliferative CCK-8 assay, MGC-803; format: cell-based; details: Homo sapiens; MGC-803, CCK-8 assay, means ± SD; read-out: GC50 (the source's name)
From the text: as §1, §2

A375 = test: Antiproliferative CCK-8 assay, A375; format: cell-based; details: Homo sapiens, A-375; A375, CCK-8 assay, means ± SD; read-out: GC50 (the source's name)
From the text: as §1, §2

HCT-116 = test: Antiproliferative CCK-8 assay, HCT-116; format: cell-based; details: Homo sapiens; HCT-116, CCK-8 assay, means ± SD; read-out: GC50 (the source's name)
From the text: as §1, §2

SW480 = test: Antiproliferative CCK-8 assay, SW480; format: cell-based; details: Homo sapiens; SW480, CCK-8 assay, means ± SD; read-out: GC50 (the source's name)
From the text: as §1, §2

HT-29 = test: Antiproliferative CCK-8 assay, HT-29; format: cell-based; details: Homo sapiens; HT-29, CCK-8 assay, means ± SD; read-out: GC50 (the source's name)
From the text: as §1, §2

CDK2 = CDK2 (Homo sapiens, UniProt P24941); test: CDKs selectivity, CDK2; format: biochemical
From the text: (§3) CDK7 and CDK9 with the same transcription function and CDK2 and CDK6 were selected to evaluate the selectivity of compound 12.

CDK7 = CDK7 (Homo sapiens, UniProt P50613); test: CDKs selectivity, CDK7; format: biochemical
From the text: as §3

STAT1 S727 = test: Phosphorylation of STAT1 S727, western blot; format: cell-based; details: HCT-116 cells, 1, 2, 4 μM, 12 h
Procedure: It has been reported that CDK8 could specifically target the transactivation domain of STAT1 at Ser727 phosphorylation. HCT-116 cells were treated with compounds 12 with different concentrations of 1 μM, 2 μM, 4 μM separately to verify compound 12 could inhibit the phosphorylation of STAT1 Ser727. […] It’s reported that CDK8 was also involved in S726 phosphorylation of STAT5 in AML cells.
Figure 6. Compound 12 inhibited phosphorylation of STAT1 S727 and STAT5 S726. (A) Compound 12 suppressed the phosphorylation of STAT1 S727 in a dose-dependent manner. HCT-116 cells were treated with compound for 12 h. (B) Compound 12 suppressed the phosphorylation of STAT5 S726 in a dose dependent manner. HL-60 cells were treated with or without compound for 12 h. The samples were analysed by Western blot.
1.7 The effect of compound on phosphorylation of STAT1 S727
HCT-116 cells were seeded into 60 mm cultural dishes at a density of 1.5×10^6 cells per dishes. […] Levels of total STAT1, phosphorylated STAT1 S727, Y701 and GAPDH were analyzed. […]
Levels of total STAT5, phosphorylated STAT5 S726 and GAPDH were analyzed.
The results were expressed as the means ± SEMs (SPSS software), and the differences between groups were evaluated using Turkey’s method (GraphPad Software). […]

[1] = In vivo pharmacokinetic evaluation
Procedure: Pharmacokinetic data is an important parameter for small molecule drugs. Here, the pharmacokinetic data of compound 12 was performed. […] Based on the above data analysis, we believed it is possible that compound 12 could be used as an oral medication (Figure 7).

CYP 1A2 = CYP 1A2 (Homo sapiens, UniProt P05177); test: CYP inhibition activity, 1A2; format: in vitro ADME
From the text: Table 7. CYP inhibition activity. | column: IC50 (μM) / 1A2

CYP 2C9 = CYP 2C9 (Homo sapiens, UniProt P11712); test: CYP inhibition activity, 2C9; format: in vitro ADME
From the text: Table 7. CYP inhibition activity. | column: IC50 (μM) / 2C9

CYP 2C19 = CYP 2C19 (Homo sapiens, UniProt P33261); test: CYP inhibition activity, 2C19; format: in vitro ADME
From the text: Table 7. CYP inhibition activity. | column: IC50 (μM) / 2C19

CYP 2D6 = CYP 2D6 (Homo sapiens, UniProt P10635); test: CYP inhibition activity, 2D6; format: in vitro ADME
From the text: Table 7. CYP inhibition activity. | column: IC50 (μM) / 2D6

C57BL/6 mice = test: Acute toxicity study; format: in vivo; details: 1000 mg/kg by gastric tube
Procedure: The safety of compound 12 in vivo was evaluated through an acute toxicity study on C57BL/6 mice. The compound 12 was administered by gastric tube at a dose of 1000 mg/kg. The normal group was given the same amount of normal saline. […] Finally, the mice were anaesthetised and sacrificed, and the main organs such as heart, liver, spleen, lung and kidney were detected through pathological section.

[2] = blood, iv, 2 mg/kg, 2 mg/kg (iv)
[3] = blood, po, 10 mg/kg, 10 mg/kg (po)

Chain of CYP 2C9 (P11712 whole entry): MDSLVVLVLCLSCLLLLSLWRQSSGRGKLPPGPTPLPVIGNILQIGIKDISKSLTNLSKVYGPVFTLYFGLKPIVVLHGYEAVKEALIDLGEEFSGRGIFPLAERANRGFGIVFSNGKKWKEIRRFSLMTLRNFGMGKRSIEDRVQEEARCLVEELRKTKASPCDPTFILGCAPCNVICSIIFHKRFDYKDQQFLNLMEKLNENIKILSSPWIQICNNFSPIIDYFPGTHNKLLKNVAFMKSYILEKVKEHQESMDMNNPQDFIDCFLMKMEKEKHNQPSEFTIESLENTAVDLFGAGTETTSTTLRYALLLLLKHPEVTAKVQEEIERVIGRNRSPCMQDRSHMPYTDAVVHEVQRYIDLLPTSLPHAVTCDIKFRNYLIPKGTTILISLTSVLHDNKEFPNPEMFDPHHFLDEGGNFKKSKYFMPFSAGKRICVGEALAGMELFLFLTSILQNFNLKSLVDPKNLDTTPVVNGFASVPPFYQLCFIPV
Chain of CYP 2C19 (P33261 whole entry): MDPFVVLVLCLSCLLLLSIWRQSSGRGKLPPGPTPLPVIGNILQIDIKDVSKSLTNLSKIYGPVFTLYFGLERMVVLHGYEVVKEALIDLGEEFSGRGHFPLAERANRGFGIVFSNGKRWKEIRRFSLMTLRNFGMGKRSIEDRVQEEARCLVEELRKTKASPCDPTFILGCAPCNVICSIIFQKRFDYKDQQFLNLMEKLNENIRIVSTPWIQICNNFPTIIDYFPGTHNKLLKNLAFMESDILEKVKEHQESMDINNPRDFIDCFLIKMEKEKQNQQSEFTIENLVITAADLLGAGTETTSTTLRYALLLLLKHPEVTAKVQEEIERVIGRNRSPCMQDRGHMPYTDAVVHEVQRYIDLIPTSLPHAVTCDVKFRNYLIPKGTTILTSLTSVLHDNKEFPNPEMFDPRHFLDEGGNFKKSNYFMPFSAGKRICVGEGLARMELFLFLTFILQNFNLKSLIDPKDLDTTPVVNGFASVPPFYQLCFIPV
Chain of CYP 2D6 (P10635 whole entry): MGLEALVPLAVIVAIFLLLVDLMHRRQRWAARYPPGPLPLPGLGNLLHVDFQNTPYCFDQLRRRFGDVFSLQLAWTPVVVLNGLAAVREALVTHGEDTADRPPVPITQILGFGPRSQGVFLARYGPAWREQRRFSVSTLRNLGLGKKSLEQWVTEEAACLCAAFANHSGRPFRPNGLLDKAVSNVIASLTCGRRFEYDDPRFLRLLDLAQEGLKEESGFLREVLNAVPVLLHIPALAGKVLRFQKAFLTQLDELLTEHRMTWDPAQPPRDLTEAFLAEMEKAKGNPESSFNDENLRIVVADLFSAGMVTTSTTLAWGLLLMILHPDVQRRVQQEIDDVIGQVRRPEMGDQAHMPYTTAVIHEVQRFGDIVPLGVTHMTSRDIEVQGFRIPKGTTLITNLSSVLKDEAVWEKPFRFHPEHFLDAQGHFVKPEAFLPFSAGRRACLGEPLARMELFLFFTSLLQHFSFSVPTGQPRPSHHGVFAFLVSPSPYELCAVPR
Chain of CYP 1A2 (P05177 whole entry): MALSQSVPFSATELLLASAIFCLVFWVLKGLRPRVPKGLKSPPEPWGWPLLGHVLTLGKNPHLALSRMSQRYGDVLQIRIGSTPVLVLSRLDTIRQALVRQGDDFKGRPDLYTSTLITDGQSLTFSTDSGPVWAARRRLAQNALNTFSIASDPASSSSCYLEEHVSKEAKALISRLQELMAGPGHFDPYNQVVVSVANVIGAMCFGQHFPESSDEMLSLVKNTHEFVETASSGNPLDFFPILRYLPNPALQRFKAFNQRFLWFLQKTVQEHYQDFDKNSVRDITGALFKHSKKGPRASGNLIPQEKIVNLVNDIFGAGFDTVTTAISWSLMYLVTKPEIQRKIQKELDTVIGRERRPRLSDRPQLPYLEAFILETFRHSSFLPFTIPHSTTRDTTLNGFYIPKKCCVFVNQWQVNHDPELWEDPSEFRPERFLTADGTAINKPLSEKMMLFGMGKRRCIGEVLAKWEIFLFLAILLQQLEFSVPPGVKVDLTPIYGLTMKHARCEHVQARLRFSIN
Chain of CDK7 (P50613 whole entry): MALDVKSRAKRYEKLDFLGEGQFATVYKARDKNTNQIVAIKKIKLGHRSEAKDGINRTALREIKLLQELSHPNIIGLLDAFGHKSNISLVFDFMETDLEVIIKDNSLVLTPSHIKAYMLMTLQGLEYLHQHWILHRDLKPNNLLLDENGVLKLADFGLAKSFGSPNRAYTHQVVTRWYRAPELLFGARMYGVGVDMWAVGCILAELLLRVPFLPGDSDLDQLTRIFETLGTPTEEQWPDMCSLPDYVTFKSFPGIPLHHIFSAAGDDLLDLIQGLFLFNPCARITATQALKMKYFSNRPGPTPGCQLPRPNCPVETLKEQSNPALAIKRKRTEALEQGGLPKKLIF
Chain of CDK7 (P51946 whole entry partner): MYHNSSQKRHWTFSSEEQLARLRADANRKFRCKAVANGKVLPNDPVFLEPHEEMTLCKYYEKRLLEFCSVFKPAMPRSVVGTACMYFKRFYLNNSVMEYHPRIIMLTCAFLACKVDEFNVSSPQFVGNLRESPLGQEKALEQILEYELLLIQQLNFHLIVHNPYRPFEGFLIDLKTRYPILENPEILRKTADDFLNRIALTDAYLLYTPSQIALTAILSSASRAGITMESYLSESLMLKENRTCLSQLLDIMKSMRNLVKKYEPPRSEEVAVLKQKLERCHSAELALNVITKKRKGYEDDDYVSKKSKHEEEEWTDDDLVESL
Chain of CDK7 (P51948 whole entry partner): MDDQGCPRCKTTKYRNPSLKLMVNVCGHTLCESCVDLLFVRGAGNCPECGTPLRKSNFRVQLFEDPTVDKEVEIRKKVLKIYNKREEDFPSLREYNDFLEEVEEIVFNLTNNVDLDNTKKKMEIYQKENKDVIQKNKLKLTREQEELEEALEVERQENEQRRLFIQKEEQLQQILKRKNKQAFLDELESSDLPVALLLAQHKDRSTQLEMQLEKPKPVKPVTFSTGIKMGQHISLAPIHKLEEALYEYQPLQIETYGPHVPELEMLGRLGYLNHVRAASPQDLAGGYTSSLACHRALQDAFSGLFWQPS

NC(=O)c1cccc(-c2cnc3[nH]cc(-c4ccoc4)c3c2)c1 [Compound 12, 3-(3-(furan-3-yl)-1H-pyrrolo[2,3-b]pyridin-5-yl)benzamide]
IC50 (MV4-11): 0.03 ± 0.01 µM | IC50 (MGC-803): 11.7 ± 1.93 µM | IC50 (A375): 1 ± 0.23 µM | IC50 (HCT-116): 3.66 ± 1.94 µM | IC50 (SW480): 6.05 ± 2.26 µM | IC50 (HT-29): 8.26 ± 0.65 µM | IC50 (CDK2): > 1 µM | IC50 (CDK7): 0.301 ± 0.0278 µM | Phosphorylation of STAT1 S727 (STAT1 S727): significantly inhibited in a dose-dependent manner | AUC 0-∞ ([1]; 2 mg/kg (iv)): 829.75 ng·h/mL | Cmax ([1]; 2 mg/kg (iv)): 647.79 ng/mL | AUC 0-∞ ([1]; 10 mg/kg (po)): 1611.67 ng·h/mL | CL ([1]; 10 mg/kg (po)): 104 mL/min/kg | Cmax ([1]; 10 mg/kg (po)): 821.82 ng/mL | AUC(0-inf) [1, 2]: 830 ng·h/mL | half-life [1, 2]: ~1.12 h | Cmax ([1]; blood, iv, 2 mg/kg, 2 mg/kg (iv), read-out: Cmax): 648 ng/mL | AUC(0-inf) [1, 3]: 1610 ng·h/mL | half-life [1, 3]: 0.95 h | Cmax ([1]; blood, po, 10 mg/kg, 10 mg/kg (po), read-out: Cmax): 822 ng/mL | MRT ([1]; blood, 2 mg/kg (iv)): 1.64 h | Tmax ([1]; blood, 2 mg/kg (iv)): 0.33 h | clearance ([1]; blood, 2 mg/kg (iv)): 40.8 mL/min/kg | MRT ([1]; blood, 10 mg/kg (po)): 2.24 h | Tmax ([1]; blood, 10 mg/kg (po)): 0.88 h | bioavailability ([1]; blood, 10 mg/kg (po) vs 2 mg/kg (iv)): 38.8% | IC50 (CYP 1A2): > 50 µM | IC50 (CYP 2C9): > 50 µM | IC50 (CYP 2C19): > 50 µM | IC50 (CYP 2D6): > 50 µM | Physiological phenomena such as anorexia, drowsiness, seizures and hyperactivity (C57BL/6 mice; 7 days): no obvious change | Pathological section of heart, liver, spleen, lung and kidney (HE staining) (C57BL/6 mice; after 7 days): no diseased tissue
